Experimental data: patent publication US20020035061A1, “COMPOSITIONS AND METHODS FOR TREATING INFECTIONS USING CATIONIC PEPTIDES ALONE OR IN COMBINATION WITH ANTIBIOTICS” (priority 1996, published 2002)

Experiments:
Assay in all cases: microbe, parasite or virus in culture
Format in all cases: cell-based
[1] = system: inherently resistant microorganisms; conditions: S. aureus MRSA
[2] = system: microorganisms with acquired resistance; conditions: for Peptide MIC: in µg/mL
[3] = system: vancomycin / teicoplanin resistant enterococci; conditions: for Peptide MIC Alone: Amikacin section; for FIC: peptide + Amikacin

In the case of KKWWRRALQGLKTAGPAIQSVLNK [MBI 21A2], the “Peptide MIC + Amikacin” value [1] is reported as 1 µg/mL, the “Peptide MIC + Piperacillin” value [1] is reported as 64 µg/mL and the “Peptide MIC Alone” value ([1]; Amikacin section) is reported as 2 µg/mL. The “Peptide MIC Alone” value ([1]; Piperacillin section) was >128 µg/mL, the FIC ([1]; peptide + Amikacin) was 0.56 and the FIC ([1]; peptide + Piperacillin) was 0.25. For the same sequence, the “Gentamicin MIC + Peptide” value ([2]; A. calcoaceticus AC001) was 4 µg/mL, the “Peptide MIC + Gentamicin” value ([2]; A. calcoaceticus AC001) was 8 µg/mL and the “Peptide MIC Alone” value ([2]; A. calcoaceticus AC001, Gentamicin section) was 16 µg/mL. The “Peptide MIC + Piperacillin” value ([2]; E. coli 1) was 2 µg/mL, the “Piperacillin MIC + Peptide” value ([2]; E. coli 1) was 8 µg/mL and the “Peptide MIC Alone” value ([2]; E. coli 1, Piperacillin section) was 4 µg/mL. The “Peptide MIC + Piperacillin” value ([2]; H. influenzae 1) was 64 µg/mL, the “Piperacillin MIC + Peptide” value ([2]; H. influenzae 1) was 4 µg/mL and the “Peptide MIC Alone” value ([2]; H. influenzae 1, Piperacillin section) was >128 µg/mL. For the same sequence, the “Peptide MIC + Piperacillin” value ([2]; H. influenzae 2) was 64 µg/mL, the “Piperacillin MIC + Peptide” value ([2]; H. influenzae 2) was 4 µg/mL and the “Peptide MIC Alone” value ([2]; H. influenzae 2, Piperacillin section) was >128 µg/mL. For the same sequence, the “Amikacin MIC + Peptide” value ([2]; P. aeruginosa PA022) was 16 µg/mL, the “Gentamicin MIC + Peptide” value ([2]; P. aeruginosa PA022) was 2 µg/mL and the “Peptide MIC + Amikacin” value ([2]; P. aeruginosa PA022) was 2 µg/mL. The “Peptide MIC + Gentamicin” value ([2]; P. aeruginosa PA022) was 4 µg/mL, the “Peptide MIC Alone” value ([2]; P. aeruginosa PA022, Amikacin section) was 8 µg/mL and the “Peptide MIC Alone” value ([2]; P. aeruginosa PA022, Gentamicin section) was 8 µg/mL. The “Ciprofloxacin MIC + Peptide” value ([2]; P. aeruginosa PA41) was 1 µg/mL, the “Peptide MIC + Ciprofloxacin” value ([2]; P. aeruginosa PA41) was 16 µg/mL and the “Peptide MIC Alone” value ([2]; P. aeruginosa PA41, Ciprofloxacin section) was 64 µg/mL. The “Ciprofloxacin MIC + Peptide” value ([2]; P. aeruginosa PA77) was 0.25 µg/mL, the “Peptide MIC + Ciprofloxacin” value ([2]; P. aeruginosa PA77) was 32 µg/mL and the “Peptide MIC Alone” value ([2]; P. aeruginosa PA77, Ciprofloxacin section) was 64 µg/mL. The “Peptide MIC” value ([2]; P. aeruginosa, combination with Ciprofloxacin) was 16, the “Peptide MIC” value ([2]; S. aureus, combination with Ciprofloxacin) was 4 and the “Peptide MIC” value ([2]; S. aureus, combination with Mupirocin) was 32. The “Peptide MIC + Piperacillin” value ([2]; S. maltophilia 3) was 16 µg/mL, the “Piperacillin MIC + Peptide” value ([2]; S. maltophilia 3) was 16 µg/mL and the “Peptide MIC Alone” value ([2]; S. maltophilia 3, Piperacillin section) was 32 µg/mL. The “Peptide MIC + Piperacillin” value ([2]; S. maltophilia 11) was 64 µg/mL, the “Piperacillin MIC + Peptide” value ([2]; S. maltophilia 11) was 8 µg/mL and the “Peptide MIC Alone” value ([2]; S. maltophilia 11, Piperacillin section) was 128 µg/mL. The “Gentamicin MIC + Peptide” value ([2]; S. maltophilia SMA020) was 0.125 µg/mL, the “Peptide MIC + Gentamicin” value ([2]; S. maltophilia SMA020) was 8 µg/mL and the “Peptide MIC Alone” value ([2]; S. maltophilia SMA020, Gentamicin section) was 16 µg/mL. For the same sequence, the “Gentamicin MIC + Peptide” value ([2]; S. maltophilia SMA021) was 0.125 µg/mL, the “Peptide MIC + Gentamicin” value ([2]; S. maltophilia SMA021) was 8 µg/mL and the “Peptide MIC Alone” value ([2]; S. maltophilia SMA021, Gentamicin section) was 16 µg/mL. The “Peptide MIC + Piperacillin” value ([2]; S. marcescens 1) was 4 µg/mL, the “Piperacillin MIC + Peptide” value ([2]; S. marcescens 1) was 16 µg/mL and the “Peptide MIC Alone” value ([2]; S. marcescens 1, Piperacillin section) was >128 µg/mL. The FIC ([2]; peptide + Amikacin, P. aeruginosa PA022) was 0.50, the FIC ([2]; peptide + Ciprofloxacin, P. aeruginosa PA41) was 0.50 and the FIC ([2]; peptide + Ciprofloxacin, P. aeruginosa PA77) was 0.63. It also gave an FIC ([2]; peptide + Gentamicin, A. calcoaceticus AC001) of 1.00, an FIC ([2]; peptide + Gentamicin, P. aeruginosa PA022) of 0.56 and an FIC ([2]; peptide + Gentamicin, S. maltophilia SMA020) of 0.50. The FIC ([2]; peptide + Gentamicin, S. maltophilia SMA021) was 0.50, the FIC ([2]; peptide + Piperacillin, E. coli 1) was 0.53 and the FIC ([2]; peptide + Piperacillin, H. influenzae 1) was 0.31. It also gave an FIC ([2]; peptide + Piperacillin, H. influenzae 2) of 0.28, an FIC ([2]; peptide + Piperacillin, S. maltophilia 3) of 0.75 and an FIC ([2]; peptide + Piperacillin, S. maltophilia 11) of 0.75. The FIC ([2]; peptide + Piperacillin, S. marcescens 1) was 0.27, the “Amikacin MIC + Peptide” value ([3]; E. faecalis EFS008) was 8 µg/mL and the “Peptide MIC + Amikacin” value ([3]; E. faecalis EFS008) was 16 µg/mL. For the same sequence, the “Peptide MIC Alone” value ([3]; E. faecalis EFS008) was >128 µg/mL, the “Amikacin MIC + Peptide” value ([3]; E. faecium EFM020) was 2 µg/mL and the “Peptide MIC + Amikacin” value ([3]; E. faecium EFM020) was 64 µg/mL. The “Peptide MIC Alone” value ([3]; E. faecium EFM020) was 128 µg/mL, the FIC ([3]; E. faecalis EFS008) was 0.19 and the FIC ([3]; E. faecium EFM020) was 0.56.
